Results taken from patent US8809368B2, “Compounds affecting gap junction activity” (Kansas State University Research Foundation, priority 2006, dated 2014).
≈ marks a conversion by molar mass, not a printed value.

Key:
Trypanosoma brucei = assay: Anti-trypanosomal activity, inhibition of T. brucei growth (ATP-bioluminescence luciferase assay); format: cell-based; details: read-out: IC50 against Trypanosoma brucei
Description: The antiparasitic activities of exemplary compounds described here was studied using the anti-trypanosomal activity protocol described in: Rapp M, et al. J Med Chem 2006; 49:2096-102. […] FIG. 1 summarizes the compound inhibition of T. brucei growth. It is seen that compounds of the invention are useful in inhibiting T. brucei growth.
Culturing of Parasites. The bloodstream form of Trypanosoma brucei 427 strain was maintained under the standard cell culture conditions (37° C., 5% CO2). The parasites were grown in complete HMI-9 medium containing 10% FBS, 10% Serum Plus and 1× Penicillin/Streptomycin. (Angew. Chem. Int. Ed. Engl. 2003, 42, 5274-5293).
Luciferase Assay. Luciferase assay was used to measure ATP-bioluminescence in T. brucei cultured in 96-well plates at 37° C. for 48 hours. Parasites were diluted to 1.0×10^5 cells/mL in complete HMI-9 medium. One hundred microliters (100 μL) of the diluted parasites were aliquoted into sterile 96-well flat white opaque culture plates (Greiner). Each compound was serially diluted from 10 μM to 0.1 μM in DMSO and then mixed in the appropriate wells containing parasites. The treated parasites were then incubated for 48 hours at 37° C. with 5% CO2 before monitoring viability. To measure the viability of the parasites after treatment with each compound, the parasites were lysed in the wells by adding 100 μL of CellTiter-Glo™ (Promega). After lysis, the ATP bioluminescence of the 96-well plates was measured with a SpectraFluor Plus multidetection plate reader (Tecan).

[1] = tested on: MDA-MB-453 human breast cancer cells; assay: Soft agar colony growth, MDA-MB-453 cells; format: cell-based; details: Table 2
Description: (§1) FIG. 3(A) MDA-MB-453 and (B) T47D human breast cancer cells were treated with 10 μM of various quinolines for 7 days. Base agar plates were prepared containing 0.8% agar and 0.4% agar in Ham's F12. Cells (5×10^4 cells/33 mm well) were suspended in 100 μl of Ham's F12 with 0.4% agar and plated. These plates were maintained at 37° C. for 7 days and examined for the presence of colonies. Individual colonies of 40 μm or greater were examined. […] However, PQ3 caused a 2.3-fold increase in colony growth in MDA-MB-453 cells and PQ2 caused a 2.6-fold increase in T47D colony growth compared to DMSO. FIGS. 7 and 8 show MDA-MB-453 and T47D colony growth for various concentrations of PQ1 and SA tested for 7 days. The procedures are generally as described above. The cell colony growth decreased using 10 and 100 nM PQ1 for both cell types. Colony Growth Assay: T47D human breast cancer cells were treated with PQ1. Base agar plates were prepared containing 0.8% agar and 0.4% agar in Ham's F12. Cells (5×10^4 cells/33 mm2 well) were suspended in 100 μl of Ham's F12 with 0.4% agar and plated. These plates were maintained at 37° C. for 7 days and examined for the presence of colonies. Individual colonies of 40 um or greater were examined.

[2] = tested on: T47D human breast cancer cells; assay: Soft agar colony growth, T47D cells; format: cell-based; details: for effect on breast cancer cell colony growth: Table 2
Description: Base agar plates were prepared containing 0.8% agar and 0.4% agar in Ham's F12. Cells (5×10^4 cells/33 mm^2 well) were suspended in 100 μl of Ham's F12 with 0.4% agar and plated. These plates were maintained at 37° C. for 7 days and examined for the presence of colonies. Individual colonies of 50 μm or greater were examined. T47D cells were treated with 1, 10 and 100 nM PQ1 and SA (succinic acid) as a solvent control. Individual colonies of 50 μm or greater were examined. Statistical significance, *p<0.05, of at least three experiments
as §1, with “types.” for “types. Colony Growth Assay: T47D human breast cancer cells were treated with PQ1. Base agar plates were prepared containing 0.8% agar and 0.4% agar in Ham's F12. Cells (5×10^4 cells/33 mm2 well) were suspended in 100 μl of Ham's F12 with 0.4% agar and plated. These plates were maintained at 37° C. for 7 days and examined for the presence of colonies. Individual colonies of 40 um or greater were examined.”
Colony Growth Assay: T47D human breast cancer cells were treated with PQ1. Base agar plates were prepared containing 0.8% agar and 0.4% agar in Ham's F12. Cells (5×10^4 cells/33 mm2 well) were suspended in 100 μl of Ham's F12 with 0.4% agar and plated. These plates were maintained at 37° C. for 7 days and examined for the presence of colonies. Individual colonies of 40 um or greater were examined.
Various oncogenes (e.g. ras, raf, neu, src, mos) down-regulate GJIC while several tumor suppressor genes can up-regulate GJIC. […] Cells were grown in soft agar to assess their capacity for anchorage-independent growth, which is a key feature of cell transformation due to the importance of cell-cell and cell-matrix based tumor suppression. MEC and T47D cells were treated with 10, 100, 1000, and 10000 nM PQ1 for 7 days. A graphical presentation of three experiment results is presented in log scale of PQ1 concentration. […] A 100 nM PQ1 inhibits 66% of colony growth compared to controls, without PQ1 treatment or 100 nM succinic acid.
Colony Growth Using Soft Agar. Cells were treated with 0, 10, 100, 200 and 500 nM PQ1 for 7 days. Base agar plates were prepared containing 0.8% agar and 0.4% agar in Ham's F12. Cells (5×10^4 cells/33 mm^2 well) were suspended in 100 μl of Ham's F12 with 0.4% agar and plated. These plates were maintained at 37° C. for 7 days and examined for the presence of colonies. Individual colonies of 50 μm or greater were examined.

MDA-MB-453 cells = assay: Gap junction activity (GJIC), flow cytometry of dye coupling, MDA-MB-453 cells; format: cell-based, human; details: MDA-MB-453; for effect on gap junction intercellular communication: Table 1, concentration not given
Description: FIG. 4(A) MDA-MB-453 and (B) T47D cells were treated with low (500 nM) and high (10 μM) concentrations of PQs for 24 hours. Monolayers of acceptor cell population were grown on 25-cm flasks in the presence of Vibrant DiD. Vybrant DiD in acceptor cells is not able to pass through the gap junctions because of its hydrophobic property. Single cell suspensions of donor treated cells were prepared, labeled with 0.05 μg/ml calcein-AM, incubated at 37 C for 5 minutes. Quantification of dye coupling between the donor and acceptor cells was assessed by dual-excitation flow cytometry. […] Cells treated with 10 μM PQ3 have approximately 40-50% decrease in gap junction activity compared control or DMSO.

MDA-MB-231 = assay: Gap junction intercellular communication, MDA-MB-231 cells; format: cell-based, human; details: Table 1
MCF-7 = assay: Gap junction intercellular communication, MCF-7 cells; format: cell-based, human; details: Table 1
ZR75 = assay: Gap junction intercellular communication, ZR75 cells; format: cell-based, human; details: Table 1
HT29 = assay: Gap junction intercellular communication, HT29 colon cancer cells; format: cell-based; details: Table 3
SW620 colon cancer cells = assay: Gap junction activity, SW620 colon cancer cells; format: cell-based
Description: However, PQ3 has an opposite effect on mammary cancer cell lines. […] A summary of PQ-mediated GJIC activity and colony growth in breast and colon cancer cells is presented in Tables 1, 2, and 3, as well as FIGS. 10-13. In FIG. 10, SW620 cells were dosed for 24 hours with PQ1 at 100, 200, 300, and 500 nM. The gap junction activity was measured as a percent of control, as previously described. It was seen that all concentrations on PQ1 increased the gap junction activity in SW620 colon cancer cells as compared to the control. In FIG. 11, the effect of PQ1 on the expression of PKCγ was studied at concentrations of 100, 200, 300 and 500 nM PQ1 for 24 hours. It is seen in FIG. 11 that PQ1 has no effect on the expression of PKCγ at the levels tested. In FIGS. 12 and 13, the effect of PQ1 on the colony growth of SW620 colon cancer cells was measured with 1-100 nM PQ1 (FIG. 12) and 10 uM PQ1 (FIG. 13).

R28 cells = assay: Dye transfer/scrape loading gap junction assay in R28 cells; format: cell-based, rat; details: 10 μM for 40 minutes, compared to untreated control cells
Description: To determine the effects of the compounds of the invention on gap junctions, […] R28 cells and lucifer yellow dye and rhodamine dextran were used to study gap junction. (Das, S.; Lauer, J.; Barnett, M.; Lin, D.; Akoev, V.; Battina, S.; Hua, D. H.; Takemoto, D. J. PKCγ phosphorylates connexin50 on serine-430. A presentation at 2006 ARVO Annual Meeting, Apr. 30-May 4, 2006, Fort Lauderdale, Fla.). […] The cells were treated with different compounds as shown @ 10 μM for 40 minutes. A mixture of lucifer yellow (LY) and rhodamine dextran (RD) was added to the cells at the center of the coverslip. Two cuts across the coverslip were made to form a transient tear in the plasma membranes of the cells to permit dye transfer through gap junctions. Cells were incubated with the dye for 20 minutes, then fixed and examined by fluorescent microscopy. For quantitative analysis the extent of dye transfer was estimated by counting the number of LY and RD labeled cells in the microscopic field and graphed. […] PQ3 is useful as a drug having reduced gap junction inhibitory activity. The gap junction activity of other compounds of the invention may be tested as described herein without the use of undue experimentation.
Gap junction activity assay. R28 cells were grown to 90% confluency on coverslips. They were treated with PQ1 at 10 μM for 40 min. A mixture of 1% each, in PBS, Lucifer yellow (LY) and Rhodamine Dextran (RD) (Molecular Probes, Eugene, Oreg.) were added to the cells at the center of the coverslip. Two cuts across the coverslip were made to form a transient tear in the plasma membranes of the cells to permit dye entry into cells. Cells were incubated with 2.5 μl of both of the dyes for 20 min, then fixed in 2.5% paraformaldehyde, washed in PBS and examined by fluorescent microscopy using a Nikon C1 confocal microscopy. For quantitation, the extent of dye transfer was calculated by counting the number of LY-labeled cells from the initial scrape with subtraction of RD-labeled cells, as a cell damage control, in the microscopic field. Four points per slide were photographed. The experiments were repeated six times, and data are means±SEM.

SMILES | IC50 (Trypanosoma brucei) [µg/mL] | effect on breast cancer cell colony growth [1] | increase in colony growth ([2]; 10 μM, 7 days, compared to DMSO) [fold] | effect on breast cancer cell colony growth [2] | effect on gap junction activity (MDA-MB-453 cells; 24 hours) | effect on gap junction intercellular communication (MDA-MB-453 cells) | effect on gap junction intercellular communication (MDA-MB-231) | effect on gap junction intercellular communication (MCF-7) | effect on gap junction intercellular communication (ZR75) | effect on gap junction intercellular communication (HT29) | effect on gap junction intercellular communication (SW620 colon cancer cells; Table 3, 6 uM) | effect on colony growth ([2]; 10 μM, 7 days) | effect on gap junction intercellular communication (SW620 colon cancer cells; Table 3, concentration not given) | block of lucifer yellow dye transfer through gap junctions (R28 cells) | block of lucifer yellow dye transfer through gap junctions (R28 cells; listed as MQ)
COc1cc([N+](=O)[O-])c2nccc(C)c2c1Oc1cccc(C(F)(F)F)c1 [PQ2, 6-Methoxy-4-methyl-8-nitro-5-(3-trifluoromethylphenyloxy)quinoline] | 2.5 (≈ 6.6 µM) | No effect | 2.6 | Increase | no significant effect | No effect | Decrease | Decrease | No effect | Increase | Increase | – | – | – | –
COc1cc([N+](=O)[O-])c(N)cc1Oc1cccc(C(F)(F)F)c1 [PQ4, 4-Amino-5-nitro-2-(3-trifluoromethylphenyloxy)anisole] | 25 (≈ 76.2 µM) | No effect | – | Decrease | – | No effect | Decrease | No effect | No effect | Increase | – | inhibitory effect | No effect | – | –
OC(c1cc(C(F)(F)F)nc2c(C(F)(F)F)cccc12)C1CCCCN1 (centres unmarked) [mefloquine, reference compound] | – | – | – | – | – | – | – | – | – | – | – | – | – | blocked dye transfer significantly | hardly any passage of the dye
